Measurements from patent publication US6384051B1, “Method of treating or inhibiting colonic polyps” (American Cyanamid Company, priority 2000, dated 2002).

Row | Compound | melting point
1 | COc1cc2c(Nc3ccc(O)cc3C)c(C#N)cnc2cc1OCCCN1CCOCC1 [Example 312, 4-(4-Hydroxy-2-methyl-phenylamino)-6-methoxy-7-(3-morpholin-4yl-propoxy)-quinoline-3-carbonitrile] | 120 to 126 °C
2 | COc1ccc(Nc2c(C#N)cnc3cc(OC)c(OC)cc23)c(C)c1 [Example 367, 6,7-Dimethoxy-4-(4-methoxy-2-methyl-phenylamino)-quinoline-3-carbonitrile] | > 131 °C (dec.)
3 | COc1cc2ncc(C#N)c(Nc3ccc(O)cc3O)c2cc1OC [Example 300, 4-(2,4-Dihydroxy-phenylamino)-6,7-dimethoxy-quinoline-3-carbonitrile] | > 250 °C
4 | COc1cc2ncc(C#N)c(Nc3ccc(Cl)c(C(F)(F)F)c3)c2cc1OC [Example 338, 4-(4-Chloro-3-trifluoromethylphenylamino)-6,7-dimethoxyquinoline-3-carbonitrile] | 265 to 267 °C
5 | COc1ccc2c(Nc3ccc(C)c(O)c3)c(C#N)cnc2c1 [Example 281, 4-(3-Hydroxy-4-methyl-phenylamino)-7-methoxy-quinoline-3-carbonitrile] | > 250 °C
6 | COc1cc2ncc(C#N)c(Nc3ccc(C)c(Br)c3)c2cc1OC [Example 248, 4-(3-Bromo-4-methyl-phenylamino)-6,7-dimethoxy-quinoline-3-carbonitrile] | 292 to 294 °C
7 | COc1ccc2ncc(C#N)c(Nc3cc(O)c(Cl)cc3F)c2c1 [Example 285, 4-(4-Chloro-2-fluoro-5-hydroxy-phenylamino)-6-methoxy-quinoline3-carbonitrile] | 228 to 230 °C
8 | COc1cc2ncc(C#N)c(Nc3ccccc3C(N)=O)c2cc1OC [Example 297, 2-(3-Cyano-6,7-dimethoxy-quinolin-4-ylamino)-benzamide] | 238 to 240.5 °C
9 | CC(C)N(CC#CC(=O)Nc1ccc2ncc(C#N)c(Nc3cccc(Br)c3)c2c1)C(C)C [Example 192, N-[4-[(3-Bromophenyl)amino]-3-cyano-6-quinolinyl]-4-diisopropylamino-2-butynamide] | 130 °C (dec.)
10 | CN1CCN(CC#CC(=O)Nc2ccc3ncc(C#N)c(Nc4cccc(Br)c4)c3c2)CC1 [Example 190, N-[4-[(3-Bromophenyl)amino]-3-cyano-6-quinolinyl]-4-(N-methylpiperazino)-2-butynamide] | 190 °C (dec.)
11 | COc1cc2ncc(C#N)c(Nc3cccc(N(C)C)c3)c2cc1OC [Example 366, 4-(3-Dimethylamino-phenylamino)-6,7-dimethoxy-quinoline-3-carbonitrile] | 246 to 249 °C
12 | N#Cc1cnc2ccc(N)cc2c1Nc1ccc(F)c(Br)c1 [Example 196, 6-amino-4-[(3-Bromo-4-fluorophenyl)amino]-3-quinolinecarbonitrile] | 210 to 212 °C
13 | COc1cc2ncc(C#N)c(Nc3cc(Br)c(O)c(Br)c3)c2cc1OC [Example 291, 4-(3,5-Dibromo-4-hydroxy-phenylamino)-6,7-dimethoxy-quinoline-3-carbonitrile] | > 250 °C
14 | COc1cc2c(Nc3cc(O)c(Cl)cc3F)c(C#N)cnc2c(OC)c1OC [Example 244, 4-(4-Chloro-2-fluoro-5-hydroxy-phenylamino)-6,7,8-trimethoxy-quinoline-3-carbonitrile] | 223 to 225 °C
15 | COc1cc2ncc(C#N)c(Nc3ccc(C)cc3O)c2cc1OC [Example 287, 4-(2-Hydroxy-4-methyl-phenylamino)-6,7-dimethoxy-quinoline-3-carbonitrile] | > 250 °C
16 | COCC#CC(=O)Nc1ccc2ncc(C#N)c(Nc3ccc(F)c(Cl)c3)c2c1 [Example 194, N-[4-[-(3-Chloro-4-fluorophenyl)amino]-3-cyano-6-quinolinyl]-4-methoxy-2-butynamide] | 170 to 171 °C
17 | COc1ccc2ncc(C#N)c(Nc3ccc(Cl)cc3F)c2c1 [Example 283, 4-(4-Chloro-2-fluoro-phenylamino)-6-methoxy-quinoline-3-carbonitrile] | > 250 °C
